From US20240197726A1, “NOVEL TETRAHYDROISOQUINOLINE ALKALOID COMPOUND CONTAINING MACROCYCLE” (THE UNIVERSITY OF TOKYO, priority 2021, published 2024)
Where two headings read alike, the source gives them in different places.

Columns and labels:
Format in all cases: cell-based
[1] = test system: HCT-116 colorectal cancer cells; test: antitumor activity, sulforhodamine B cell growth assay, HCT-116; details: HCT-116, drug exposure 48 hours, read-out: GI50 value: 50% growth inhibitory concentration
Protocol: (§1) The THIQ compound containing a macrocyclic structure of the present invention was administered to various cancer cell lines, and the antitumor activity (Go value) was observed. Specifically, verification was performed according to the literature (Yamori, T.; Matsunaga, A.; Sato, S.; Yamazaki, K.; Komi, A.; Ishizu, K. et al. Cancer Res. 1999, 59, 4042) by the following procedure.
(§2) Cells were plated at an appropriate density in a 96-well plate in RPMI 1640 together with 5% fetal bovine serum, and adhered overnight. The cells were exposed to a drug for 48 hours. Then, according to the sulforhodamine B assay described by Skehan et al (Skehan P., Storeng R., Scudiero D., Monks A., McMahon J., Vistica D., Warren J. T., Bokesch H., Kenney S., Boyd M. R. J Natl. Cancer Inst, 1990, 82, 1107-1112), the cell growth rate was measured. The absorbance of the control well (C) and the test well (T) was measured at 525 nm. In addition, the time at which the drug was added was set as time 0, and the absorbance for the test well (T0) was measured. Using these measured values, the cell growth inhibitory effect (% growth=PG) was calculated by the following formula at each concentration of the drug.
(§3) (T<T0): PG=100×[(T−T0)/T]
(§4) The PG values determined above for each cell line were plotted against the concentration (logarithm) on a semi-logarithmic graph, and summarized for each visceral cancer. Concentrations at which the dose-response curve of each cell line crossed the horizontal line of PG=50%, 0%, or −50% were calculated. These concentrations were defined as Log GI50, Log TGI, and Log LC50. Actually, using two data points of the drug concentration before and after crossing each horizontal line, the drug concentration (logarithmic value) at the intersection of the straight line connecting the two points and the horizontal line for each PG was calculated.

[2] = test system: OVCAR-5 cervical cancer cells; test: antitumor activity, sulforhodamine B cell growth assay, OVCAR-5; details: OVCAR-5, drug exposure 48 hours, read-out: GI50 value: 50% growth inhibitory concentration
Protocol: as §1, §2, §3, §4

[3] = test system: MKN-B gastric cancer cells; test: antitumor activity, sulforhodamine B cell growth assay, MKN-B; details: MKN-B, drug exposure 48 hours; read-out: GI50 value: 50% growth inhibitory concentration
Protocol: as §1, §2, §3, §4

[4] = test system: SNB-75 central nervous system cancer cells; test: antitumor activity, sulforhodamine B cell growth assay, SNB-75; details: SNB-75, drug exposure 48 hours, read-out: GI50 value: 50% growth inhibitory concentration
Protocol: as §1, §2, §3, §4

[5] = test system: HT-29 colorectal cancer cells; test: antitumor activity, sulforhodamine B cell growth assay, HT-29; details: HT-29, drug exposure 48 hours, read-out: GI50 value: 50% growth inhibitory concentration
Protocol: as §1, §2, §3, §4

OVCAR-8 cancer cells = test: antitumor activity, sulforhodamine B cell growth assay, OVCAR-8; details: OVCAR-8, drug exposure 48 hours, read-out: GI50 value: 50% growth inhibitory concentration
Protocol: as §1, §2, §3, §4

[6] = test system: HBC-4 breast cancer cells; test: antitumor activity, sulforhodamine B cell growth assay, HBC-4; details: HBC-4, drug exposure 48 hours, read-out: GI50 value: 50% growth inhibitory concentration
Protocol: as §1, §2, §3, §4

[7] = test system: HCT-15 colorectal cancer cells; test: antitumor activity, sulforhodamine B cell growth assay, HCT-15; details: HCT-15, drug exposure 48 hours, read-out: GI50 value: 50% growth inhibitory concentration
Protocol: as §1, §2, §3, §4

[8] = test system: various cancer cell lines; test: Verification of antitumor activity, whole panel of cancer cell lines; details: in words, compared with Cyanosafracin B
Protocol: as §1, §2, §3, §4

[9] = test system: MKN1 gastric cancer cells; test: antitumor activity, sulforhodamine B cell growth assay, MKN1; details: MKN1, drug exposure 48 hours, read-out: GI50 value: 50% growth inhibitory concentration
Protocol: as §1, §2, §3, §4

[10] = test system: RXF-631L kidney cancer cells; test: antitumor activity, sulforhodamine B cell growth assay, RXF-631L; details: RXF-631L, drug exposure 48 hours; read-out: GI50 value: 50% growth inhibitory concentration
Protocol: as §1, §2, §3, §4

[11] = test system: SNB-78 central nervous system cancer cells; test: antitumor activity, sulforhodamine B cell growth assay, SNB-78; details: SNB-78, drug exposure 48 hours, read-out: GI50 value: 50% growth inhibitory concentration
Protocol: as §1, §2, §3, §4

[12] = test system: DU-145 prostate cancer cells; test: antitumor activity, sulforhodamine B cell growth assay, DU-145; details: DU-145, drug exposure 48 hours, read-out: GI50 value: 50% growth inhibitory concentration
Protocol: as §1, §2, §3, §4

[13] = test system: NCI-H460 lung cancer cells; test: antitumor activity, sulforhodamine B cell growth assay, NCI-H460; details: NCI-H460, drug exposure 48 hours, read-out: GI50 value: 50% growth inhibitory concentration
Protocol: as §1, §2, §3, §4

[14] = test system: MKN-A gastric cancer cells; test: antitumor activity, sulforhodamine B cell growth assay, MKN-A; details: MKN-A, drug exposure 48 hours; read-out: GI50 value: 50% growth inhibitory concentration
Protocol: as §1, §2, §3, §4

[15] = test system: St-4 gastric cancer cells; test: antitumor activity, sulforhodamine B cell growth assay, St-4; details: St-4 (SI-4 in Tables 2-11), drug exposure 48 hours; read-out: GI50 value: 50% growth inhibitory concentration
Protocol: as §1, §2, §3, §4

SK-OV-3 cancer cells = test: antitumor activity, sulforhodamine B cell growth assay, SK-OV-3; details: SK-OV-3, drug exposure 48 hours, read-out: GI50 value: 50% growth inhibitory concentration
Protocol: as §1, §2, §3, §4

A549 lung cancer cells = test: antitumor activity, sulforhodamine B cell growth assay, A549; details: A549, drug exposure 48 hours, read-out: GI50 value: 50% growth inhibitory concentration
Protocol: as §1, §2, §3, §4

[16] = test system: NCI-H522 lung cancer cells; test: antitumor activity, sulforhodamine B cell growth assay, NCI-H522; details: NCI-H522, drug exposure 48 hours, read-out: GI50 value: 50% growth inhibitory concentration
Protocol: as §1, §2, §3, §4

SMILES	GI50 [1] [nM]	GI50 [2] [nM]	GI50 [3] [nM]	GI50 [4] [nM]	GI50 [5] [nM]	GI50 (OVCAR-8 cancer cells) [nM]	GI50 [6] [nM]	GI50 [7] [nM]	GI50 [9] [nM]	GI50 [10] [nM]	GI50 [11] [nM]	GI50 [12] [nM]	GI50 [13] [nM]	GI50 [14] [nM]	GI50 [15] [nM]	GI50 (SK-OV-3 cancer cells) [nM]	GI50 (A549 lung cancer cells) [nM]	GI50 [16] [nM]	further results
C=C1/C=C/CN[C@@H](C)C(=O)NCC2c3c(c(c(C)c4c3OCO4)OC1)C[C@H]1[C@H]3c4c(cc(C)c(OC)c4O)C[C@@H]([C@H](C#N)N21)N3C [Compound 33]	87	310	220	96	86	180	32	400	68	300	83	370	260	330	270	500	360	25	antitumor activity [8]: better antitumor activity than Cyanosafracin B
COC1=C(C)C(=O)C2=C(C1=O)[C@H](CNC(=O)[C@H](C)N)N1C(C2)[C@H]2c3c(cc(C)c(OC)c3O)C[C@@H]([C@@H]1C#N)N2C (stereo partly shown) [Cyanosafracin B, reference compound]	290	390	170	150	190	290	59	390	52	400	63	490	400	250	430	540	1600	43	–
COc1c(C)cc2c(c1O)[C@@H]1[C@@H]3Cc4c5c(C)c6c(c4C(CNC(=O)[C@H](C)N(C)CC#CCO5)N3[C@@H](C#N)[C@H](C2)N1C)OCO6 [Compound 29]	–	–	3	–	–	–	–	–	–	3.1	–	–	–	3.5	3.8	–	–	–	GI50 ([1]; Homo sapiens): 2.4 nM; GI50 ([2]; Homo sapiens): 3.2 nM; GI50 ([4]; Homo sapiens): 1.3 nM; GI50 ([5]; Homo sapiens): 2 nM; GI50 (OVCAR-8 cancer cells; Homo sapiens): 2.6 nM; GI50 ([6]; HBC4): 1.5 nM; GI50 ([7]; Homo sapiens): 3.9 nM; GI50 ([9]; Homo sapiens, MKN-1): 2.3 nM; GI50 ([11]; Homo sapiens): 3.1 nM; GI50 ([12]; Homo sapiens): 3.5 nM; GI50 ([13]; Homo sapiens): 2.8 nM; GI50 (SK-OV-3 cancer cells; Homo sapiens): 5.7 nM; GI50 (A549 lung cancer cells; Homo sapiens): 3.4 nM; GI50 ([16]; Homo sapiens): 0.6 nM
